This is an account of results in PubChem BioAssay AID296 (DTP/NCI, 2004).

This experiment concerns MX-1 breast xenograft, nude mice, tumor weight T/C. The experiment can be described thus: NCI In Vivo Anticancer Drug Screen. Data for tumor model Human Mammary Carcinoma MX-1 Xenograft (intrarenal inoculation) in NU/NU Swiss (nude) mice. The following applies: endpoint: mean tumor weight change, higher = larger tumour. An outline of the steps: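 Antitumour effect measured in vivo against vehicle controls, expressed as T/C.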
On the technique in general: In xenograft studies the graft and the host belong to different species.

Setting [1] is: dose: 50.0 mg/kg/injection, schedule: Q01DX010 (sc), vehicle: saline.
The mark [2] stands for this setting: dose: 300.0 mg/kg/injection, schedule: Q04DX003 (sc), vehicle: saline with Tween-80.
Setting [3] is: dose: 1200.0 mg/kg/injection, schedule: Q04DX003 (sc), vehicle: saline with Tween-80.
Setting [4] is: dose: 50.0 mg/kg/injection, schedule: Q04DX003 (sc), vehicle: suspension in saline.
Where [5] appears, read: dose: 200.0 mg/kg/injection, schedule: Q04DX003 (sc), vehicle: suspension in saline.
The mark [6] stands for this setting: dose: 400.0 mg/kg/injection, schedule: Q04DX003 (sc), vehicle: suspension in saline.

SMILES strings stand for the structures. Where “and” joins values, the source holds several entries; their conditions need not be identical. Equal entries are not always repeated. Inconclusive results are not listed.

As for `O=NN(CCCl)C(=O)NC1CCC(=O)NC1=O` (stereo unspecified), the T/C was 100 % of control (dose: 1.56 mg/kg/injection, schedule: Q01DX010 (sc), vehicle: saline with Tween-80); 69 % of control and 72 % of control (dose: 3.13 mg/kg/injection, schedule: Q01DX010 (sc), vehicle: saline with Tween-80); 2 % of control and 15 % of control and 25 % of control (dose: 6.25 mg/kg/injection, schedule: Q01DX010 (sc), vehicle: saline with Tween-80); -87 % of control and -84 % of control (dose: 12.5 mg/kg/injection, schedule: Q01DX010 (sc), vehicle: saline with Tween-80).

As for `NC(C/[N+]([O-])=N/O)C(=O)O` (stereo unspecified), the T/C was 98 % of control under setting [1] and 62 % of control (dose: 100.0 mg/kg/injection, schedule: Q01DX010 (sc), vehicle: saline).

As to `O=C1N=C(Oc2ccccc2)SC1=O`, the T/C (dose: 400.0 mg/kg/injection, schedule: Q04DX003 (sc), vehicle: saline with Tween-80) was 67 % of control.

`C=C1C(=O)C23[C@H](O)C1CC[C@H]2[C@]12COC3(O)[C@@H](O)[C@@H]1C(C)(C)CC[C@@H]2O`: the T/C was 52 % of control (dose: 12.5 mg/kg/injection, schedule: Q04DX003 (sc), vehicle: Klucel (hydroxypropylcellulose) (HPC)) and 85 % of control (dose: 25.0 mg/kg/injection, schedule: Q04DX003 (sc), vehicle: Klucel (hydroxypropylcellulose) (HPC)).

Take `CCCC(=O)Nc1ncnc2c1ncn2C1OC2COP(=O)(O)OC2C1OC(=O)CCC` (stereo unspecified): the T/C is, setting by setting: (dose: 200.0 mg/kg/injection, schedule: Q01DX010 (sc), vehicle: saline) 159 % of control; (dose: 400.0 mg/kg/injection, schedule: Q01DX010 (sc), vehicle: saline) 124 % of control.

For `COc1cc2cc3cc4cc(OC)c(OC)cc4c(C)[n+]3cc2cc1OC` (tested in a mixture with another compound), the T/C is 61 % of control (dose: 1200.0 mg/kg/injection, schedule: Q04DX003 (sc), vehicle: suspension in saline) and 84 % of control (dose: 2400.0 mg/kg/injection, schedule: Q04DX003 (sc), vehicle: suspension in saline).

Take `CCCCCCCC(=O)OCC(=O)[C@]1(O)Cc2c(O)c3c(c(O)c2[C@@H](OC2CC(N)C(O)C(C)O2)C1)C(=O)c1c(OC)cccc1C3=O` (stereo partly specified): the T/C is 17 % of control (dose: 4.0 mg/kg/injection, schedule: Q01DX010 (sc), vehicle: suspension in saline) and 2 % of control (dose: 8.0 mg/kg/injection, schedule: Q01DX010 (sc), vehicle: suspension in saline).

As to `CCN(CC)c1ccc2[nH]c3c(C(N)=O)cc(=O)c(=O)c=3oc2c1`, the T/C was 88 % of control (dose: 150.0 mg/kg/injection, schedule: Q04DX003 (sc), vehicle: saline with Tween-80); 84 % of control under setting [2]; 101 % of control under setting [3].

Regarding `CCOC(=O)/N=[N+](\[O-])c1ccccc1`, the T/C (dose: 37.5 mg/kg/injection, schedule: Q04DX003 (ip), vehicle: saline with Tween-80) was 110 % of control.

For `COc1cc([C@@H]2c3cc4c(c(O)c3C[C@H]3COC(=O)[C@@H]32)OCO4)cc(OC)c1O`, the T/C reads like this: (dose: 0.5 mg/kg/injection, schedule: Q01DX010 (sc), vehicle: saline) 121 % of control; (dose: 1.0 mg/kg/injection, schedule: Q01DX010 (sc), vehicle: saline) 114 % of control; (dose: 2.0 mg/kg/injection, schedule: Q01DX010 (sc), vehicle: saline) 87 % of control; (dose: 3.13 mg/kg/injection, schedule: Q01DX010 (sc), vehicle: saline) 104 % of control; (dose: 4.0 mg/kg/injection, schedule: Q01DX010 (sc), vehicle: saline) 98 % of control; (dose: 6.25 mg/kg/injection, schedule: Q01DX010 (sc), vehicle: saline) 34 % of control.

Turning to `CS(=O)(=O)OCCN(CCOS(C)(=O)=O)c1ccc(C=Nc2ccc(-c3csc(COc4ccccc4)n3)cc2)cc1`, the T/C is 37 % of control (dose: 50.0 mg/kg/injection, schedule: Q01DX010 (sc), vehicle: Klucel (hydroxypropylcellulose) (HPC)); -18 % of control (dose: 100.0 mg/kg/injection, schedule: Q01DX010 (sc), vehicle: Klucel (hydroxypropylcellulose) (HPC)); -84 % of control (dose: 200.0 mg/kg/injection, schedule: Q01DX010 (sc), vehicle: Klucel (hydroxypropylcellulose) (HPC)).

As to `C1OC1C1CO1` (stereo unspecified), the T/C reads like this: (dose: 12.5 mg/kg/injection, schedule: Q01DX010 (sc), vehicle: saline) 4 % of control and 28 % of control; (dose: 12.5 mg/kg/injection, schedule: Q04DX003 (sc), vehicle: suspension in saline) 63 % of control and 74 % of control; (dose: 25.0 mg/kg/injection, schedule: Q01DX010 (sc), vehicle: saline) -53 % of control and -47 % of control; (dose: 25.0 mg/kg/injection, schedule: Q04DX003 (sc), vehicle: suspension in saline) 37 % of control and 44 % of control; under setting [1], -90 % of control and -85 % of control; under setting [4], 1 % of control and 4 % of control.

Regarding `CCOC(=O)N(C)N=NC`, the T/C is 97 % of control (dose: 15.0 mg/kg/injection, schedule: Q04DX003 (ip), vehicle: saline); 95 % of control (dose: 30.0 mg/kg/injection, schedule: Q04DX003 (ip), vehicle: saline); 71 % of control (dose: 60.0 mg/kg/injection, schedule: Q04DX003 (ip), vehicle: saline); 52 % of control (dose: 120.0 mg/kg/injection, schedule: Q04DX003 (ip), vehicle: saline).

Take `c1cn[nH]c1`: the T/C is, setting by setting: (dose: 75.0 mg/kg/injection, schedule: Q04DX003 (ip), vehicle: saline) 106 % of control; (dose: 150.0 mg/kg/injection, schedule: Q04DX003 (ip), vehicle: saline) 96 % of control; (dose: 300.0 mg/kg/injection, schedule: Q04DX003 (ip), vehicle: saline) 69 % of control; (dose: 600.0 mg/kg/injection, schedule: Q04DX003 (ip), vehicle: saline) 71 % of control.

Regarding `CN(CCN(C)C(=O)CCOS(C)(=O)=O)C(=O)CCOS(C)(=O)=O`, the T/C is 41 % of control (dose: 50.0 mg/kg/injection, schedule: Q04DX003 (sc), vehicle: saline with Tween-80); 16 % of control under setting [4]; 1 % of control (dose: 100.0 mg/kg/injection, schedule: Q04DX003 (sc), vehicle: saline with Tween-80); -86 % of control (dose: 100.0 mg/kg/injection, schedule: Q04DX003 (sc), vehicle: suspension in saline); -65 % of control (dose: 200.0 mg/kg/injection, schedule: Q04DX003 (sc), vehicle: saline with Tween-80); -100 % of control under setting [5]. Also, under setting [6], the T/C was -100 % of control.

As for `C=CCNc1nc2c(s1)CCc1cc(OC)c(OC)cc1-2`, the T/C is 92 % of control under setting [2]; 96 % of control (dose: 600.0 mg/kg/injection, schedule: Q04DX003 (sc), vehicle: saline with Tween-80); 80 % of control under setting [3].

With `c1ccc2c(c1)[As]=c1ccccc1=[As]2` (stereo unspecified), the T/C reads like this: (dose: 150.0 mg/kg/injection, schedule: Q04DX003 (sc), vehicle: saline) 116 % of control; (dose: 300.0 mg/kg/injection, schedule: Q04DX003 (sc), vehicle: saline) 118 % of control; (dose: 600.0 mg/kg/injection, schedule: Q04DX003 (sc), vehicle: saline) 99 % of control.

For the molecule `CCCCCCCCCCS(=O)CC(CO)NC(=O)/C=C/c1c(C)[nH]c(=O)[nH]c1=O` (stereo unspecified), the T/C is, setting by setting: (dose: 9.38 mg/kg/injection, schedule: Q04DX003 (sc), vehicle: distilled water + Tween-80) 88 % of control; (dose: 18.75 mg/kg/injection, schedule: Q04DX003 (sc), vehicle: distilled water + Tween-80) 113 % of control; (dose: 37.5 mg/kg/injection, schedule: Q04DX003 (sc), vehicle: distilled water + Tween-80) 46 % of control.

Turning to `C1CN(P2(N3CC3)=NP(N3CC3)(N3CC3)=NP(N3CC3)(N3CC3)=N2)CCO1` (stereo unspecified), the T/C runs as follows: (dose: 12.5 mg/kg/injection, schedule: Q04DX003 (sc), vehicle: saline) 36 % of control; (dose: 25.0 mg/kg/injection, schedule: Q04DX003 (sc), vehicle: saline) 9 % of control; (dose: 50.0 mg/kg/injection, schedule: Q04DX003 (sc), vehicle: saline) -77 % of control and -68 % of control (2×); (dose: 100.0 mg/kg/injection, schedule: Q04DX003 (sc), vehicle: saline) -93 % of control.

`Cc1ccc2nc(-c3ccc4nc(-c5ccc(N=Nc6ccc(-c7nc8ccc(-c9nc%10ccc(C)c(S(=O)(=O)O)c%10s9)cc8s7)cc6)cc5)sc4c3)sc2c1S(=O)(=O)O`: the T/C reads like this: under setting [5], 90 % of control; under setting [6], 90 % of control.

Consider `CN(C)[C@@H]1C(=O)C(C(=O)NCN2CCN(C(=N)N=C(N)N)CC2)=C(O)[C@@]2(O)C(=O)C3=C(O)c4c(O)cccc4[C@@](C)(O)[C@H]3C[C@@H]12`, for which the T/C is 100 % of control (dose: 2.5 mg/kg/injection, schedule: Q04DX003 (ip), vehicle: suspension in saline) and 28 % of control (dose: 5.0 mg/kg/injection, schedule: Q04DX003 (ip), vehicle: suspension in saline).
